11 molecules from patent publication US20250127801A1, “BRIDGED TRICYCLIC CARBAMOYLPYRIDONE COMPOUNDS AND USES THEREOF” (priority 2023, published 2025) can be followed below.

Read-outs that look alike come from different tables or passages of the source.

Usually EC50 stands for the midpoint of the concentration-response curve.

One series deals with HIV-1 (IIIB). Briefly: microbe, parasite or virus in culture. It counts as cell-based.
The next series is described as follows: in vitro. To be noted: human; for CC50 at 5 days: uninfected MT-4 cells.
Where [1] appears, read: Human immunodeficiency virus 1, MT4, 120 h, HIV-1 (IIIB) replication in MT-4 cells, 5 days incubation, Cell Titer Glo, read-out: MT4 EC50.
Setting [2] is: Human immunodeficiency virus 1, IIIB, MT4, 120 h, read-out: MT4 EC50 (nM).

Regarding `CC1=NO[C@@]2(CC[C@H](C)N3C[C@H]2n2cc(C(=O)NCc4ccc(F)cc4F)c(=O)c(OCOC(=O)O[C@H]4CCCCC[C@@H]4OP(=O)(O)O)c2C3=O)C1` [Compound 77, (((3′S,5S,7′R)-10′-((2,4-difluorobenzyl)carbamoyl)-3,3′-dimethyl-1′,11′-dioxo-1′,4′,5′,11′-tetrahydro-3′H,4H,7′H-spiro[isoxazole-5,6′-[2,7]methanopyrido[1,2-a][1,4]diazonin]-12′-yl)oxy)methyl ((1S,2S)-2-(phosphonooxy)cycloheptyl) carbonate], in the series with HIV-1 (IIIB) (setting [1]), the concentration giving a half-maximal response (EC50) is 2.05 nM. The molecule further returned a CC50 at 5 days in the series “in vitro” of 19.4 µM. For `COC1=NO[C@@]2(CC[C@H](C)N3C[C@H]2n2cc(C(=O)NCc4ccc(F)cc4F)c(=O)c(OCc4oc(=O)oc4C)c2C3=O)C1` [Compound 103, (3′S,5S,7′R)—N-(2,4-difluorobenzyl)-3-methoxy-3′-methyl-12′-((5-methyl-2-oxo-1,3-dioxol-4-yl)methoxy)-1′,11′-dioxo-1′,4′,5′,11′-tetrahydro-3′H,4H,7′H-spiro[isoxazole-5,6′-[2,7]methanopyrido[1,2-a][1,4]diazonine]-10′-carboxamide], in the series on HIV-1 (IIIB) (setting [1]), the EC50 stood at 1.91 nM. The molecule further displayed a CC50 at 5 days in “in vitro” of 18.9 µM. The matching figures for `CCCCCCCCCCCCCC(=O)OCc1ccccc1C(=O)Oc1c2n(cc(C(=O)NCc3ccc(F)cc3F)c1=O)[C@@H]1CN(C2=O)[C@@H](C)CC[C@]12CC(OC)=NO2` [Compound 91, (3′S,5S,7′R)-10′-((2,4-difluorobenzyl)carbamoyl)-3-methoxy-3′-methyl-1′,11′-dioxo-1′,4′,5′,11′-tetrahydro-3′H,4H,7′H-spiro[isoxazole-5,6′-[2,7]methanopyrido[1,2-a][1,4]diazonin]-12′-yl 2-((tetradecanoyloxy)methyl)benzoate]: 5.07 nM and at least 50 µM. With `CC1=NO[C@@]2(CC[C@H](C)N3C[C@H]2n2cc(C(=O)NCc4ccc(F)cc4F)c(=O)c(OCOC(=O)N(C)c4ncccc4CN(CC(=O)N[C@@H](CCC(=O)O)C(=O)O)C(=O)OCOP(=O)(O)O)c2C3=O)C1` [Compound 60, N-((2-((((((3′S,5S,7′R)-10′-((2,4-difluorobenzyl)carbamoyl)-3,3′-dimethyl-1′,11′-dioxo-1′,4′,5′,11′-tetrahydro-3′H,4H,7′H-spiro[isoxazole-5,6′-[2,7]methanopyrido[1,2-a][1,4]diazonin]-12′-yl)oxy)methoxy)carbonyl)(methyl)amino)pyridin-3-yl)methyl)-N-(((phosphonooxy)methoxy)carbonyl)glycyl-L-glutamic acid], in the series on HIV-1 (IIIB) (setting [2]), the EC50 came out at 1.59 nM. Moreover, the CC50 in the series “in vitro” was 13.8 µM. For the molecule `COC1=NO[C@@]2(CC[C@H](C)N3C[C@H]2n2cc(C(=O)NCc4ccc(F)cc4F)c(=O)c(OCOP(=O)(O)OCc4ccccc4)c2C3=O)C1` [Compound 18, benzyl ((((3′S,5S,7′R)-10′-((2,4-difluorobenzyl)carbamoyl)-3-methoxy-3′-methyl-1′,11′-dioxo-1′,4′,5′,11′-tetrahydro-3′H,4H,7′H-spiro[isoxazole-5,6′-[2,7]methanopyrido[1,2-a][1,4]diazonin]-12′-yl)oxy)methyl) hydrogen phosphate], the EC50 in the series on HIV-1 (IIIB) (setting [1]) is 12.3 nM. For the same molecule, the CC50 at 5 days in the series “in vitro” is at least 50 µM. `CC1=NO[C@@]2(CC[C@H](C)N3C[C@H]2n2cc(C(=O)NCc4ccc(F)cc4F)c(=O)c(OCOC(=O)CC(C)(C)c4c(CC(=O)NCP(=O)(O)O)cc(C)cc4OP(=O)(O)O)c2C3=O)C1` [Compound 81, ((2-(2-(4-((((3′S,5S,7′R)-10′-((2,4-difluorobenzyl)carbamoyl)-3,3′-dimethyl-1′,11′-dioxo-1′,4′,5′,11′-tetrahydro-3′H,4H,7′H-spiro[isoxazole-5,6′-[2,7]methanopyrido[1,2-al][1,4]diazonin]-12′-yl)oxy)methoxy)-2-methyl-4-oxobutan-2-yl)-5-methyl-3-(phosphonooxy)phenyl)acetamido)methyl)phosphonic acid]: the 50% effective concentration (EC50) with HIV-1 (IIIB) (setting [2]) was 2.09 nM. The molecule further displayed a CC50 in the series “in vitro” of 14.4 µM. As for `COCCN(Cc1cccnc1N(C)C(=O)Oc1c2n(cc(C(=O)NCc3ccc(F)cc3F)c1=O)[C@@H]1CN(C2=O)[C@@H](C)CC[C@]12CC(C)=NO2)C(=O)OCOP(=O)(O)O` [Compound 83, (3′S,5S,7′R)-10′-((2,4-difluorobenzyl)carbamoyl)-3,3′-dimethyl-1′,11′-dioxo-1′,4′,5′,11′-tetrahydro-3′H,4H,7′H-spiro[isoxazole-5,6′-[2,7]methanopyrido[1,2-a][1,4]diazonin]-12′-yl (3-(((2-methoxyethyl)(((phosphonooxy)methoxy)carbonyl)amino)methyl)pyridin-2-yl)(methyl)carbamate], the EC50 in the series on HIV-1 (IIIB) (setting [2]) came out at 1.36 nM. The molecule also came in with a CC50 in “in vitro” of 13.2 µM. The like results for `CC1=NO[C@@]2(CC[C@H](C)N3C[C@H]2n2cc(C(=O)NCc4ccc(F)cc4F)c(=O)c(OC(=O)N(C)c4ncccc4CN(CCC(F)(F)F)C(=O)OCOP(=O)(O)O)c2C3=O)C1` [Compound 82, (3′S,5S,7′R)-10′-((2,4-difluorobenzyl)carbamoyl)-3,3′-dimethyl-1′,11′-dioxo-1′,4′,5′,11′-tetrahydro-3′H,4H,7′H-spiro[isoxazole-5,6′-[2,7]methanopyrido[1,2-a][1,4]diazonin]-12′-yl methyl(3-(((((phosphonooxy)methoxy)carbonyl)(3,3,3-trifluoropropyl)amino)methyl)pyridin-2-yl)carbamate] were, in that order, 2.17 nM and 8.52 µM.

Consider `CC1=NO[C@@]2(CC[C@H](C)N3C[C@H]2n2cc(C(=O)NCc4ccc(F)cc4F)c(=O)c(OCOC(=O)N(C)c4ncccc4CN(CC(=O)N[C@@H](CC(=O)O)C(=O)O)C(=O)OCOP(=O)(O)O)c2C3=O)C1` [Compound 36, N-((2-((((((3′S,5S,7′R)-10′-((2,4-difluorobenzyl)carbamoyl)-3,3′-dimethyl-1′,11′-dioxo-1′,4′,5′,11′-tetrahydro-3′H,4H,7′H-spiro[isoxazole-5,6′-[2,7]methanopyrido[1,2-a][1,4]diazonin]-12′-yl)oxy)methoxy)carbonyl)(methyl)amino)pyridin-3-yl)methyl)-N-(((phosphonooxy)methoxy)carbonyl)glycyl-L-aspartic acid], for which the EC50 with HIV-1 (IIIB) (setting [1]) amounted to 3.09 nM. This molecule returned a CC50 at 5 days in the series “in vitro” of 22 µM. In the series “in vitro”, `CCCCCCCCCCCCCC(=O)NCc1ccccc1C(=O)Oc1c2n(cc(C(=O)NCc3ccc(F)cc3F)c1=O)[C@@H]1CN(C2=O)[C@@H](C)CC[C@]12CC(C)=NO2` [Compound 102, (3′S,5S,7′R)-10′-((2,4-difluorobenzyl)carbamoyl)-3,3′-dimethyl-1′,11′-dioxo-1′,4′,5′,11′-tetrahydro-3′H,4H,7′H-spiro[isoxazole-5,6′-[2,7]methanopyrido[1,2-a][1,4]diazonin]-12′-yl 2-(tetradecanamidomethyl)benzoate] showed a CC50 at 5 days of 31.8 µM. As for `CCCCCCCCCCCCCC(=O)NCc1ccccc1C(=O)Oc1c2n(cc(C(=O)NCc3ccc(F)cc3F)c1=O)[C@@H]1CN(C2=O)[C@@H](C)CC[C@]12CC(OC)=NO2` [Compound 101, (3′S,5S,7′R)-10′-((2,4-difluorobenzyl)carbamoyl)-3-methoxy-3′-methyl-1′,11′-dioxo-1′,4′,5′,11′-tetrahydro-3′H,4H,7′H-spiro[isoxazole-5,6′-[2,7]methanopyrido[1,2-a][1,4]diazonin]-12′-yl 2-(tetradecanamidomethyl)benzoate], in “in vitro”, the CC50 at 5 days was at least 50 µM.
